The source of these data is patent publication US9585891B2 (MERCK PATENT GMBH, priority 2012, dated 2017).

Each structure is given as a SMILES string.

The target in test [1] is T1, Vanin-1 in SUIT-S2 cell line (Homo sapiens, UniProt O95497).
T1 construct: endogenous in cells; host or cells: SUIT-S2 cell line (ATCC # CRL1596)
T1 sequence (O95497 22-491): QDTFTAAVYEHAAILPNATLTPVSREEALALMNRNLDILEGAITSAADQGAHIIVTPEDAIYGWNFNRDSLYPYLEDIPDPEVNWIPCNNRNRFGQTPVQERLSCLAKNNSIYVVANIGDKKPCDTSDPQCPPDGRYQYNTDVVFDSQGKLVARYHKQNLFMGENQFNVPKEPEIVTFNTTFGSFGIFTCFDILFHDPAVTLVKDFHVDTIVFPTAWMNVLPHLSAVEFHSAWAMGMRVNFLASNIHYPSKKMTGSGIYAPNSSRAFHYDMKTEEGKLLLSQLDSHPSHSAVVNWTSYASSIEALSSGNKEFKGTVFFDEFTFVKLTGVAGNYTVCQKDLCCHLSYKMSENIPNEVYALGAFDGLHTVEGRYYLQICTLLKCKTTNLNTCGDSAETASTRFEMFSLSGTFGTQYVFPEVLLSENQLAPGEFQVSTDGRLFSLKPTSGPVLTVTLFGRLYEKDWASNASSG
Description: Vanin-1 cell-based mechanistic assay (fluorescence intensity, Pantothenate-AMC substrate). As to conditions: 40000 cells per well, 2 hours incubation at 37° C., Pantothenate-AMC 30 μM, 30 min. The procedure:
Vanin-1 Cell-Based Mechanistic Assay:
The cellular activity of the examples is measured in 96-well format based on fluorescence intensity assay using SUIT-S2 cell line (ATCC # CRL1596).
Cells are cultured at 37° C. with 5% CO2 to 80-90% confluence and then washed once with phosphate-buffered saline (PBS). Adherent cells are detached with PBS-EDTA and once in suspension 40000 cells are dispensed in 90 μl of PBS in 96-well black plates with clear bottoms. Threefold serial dilutions of test compounds are made in DMSO and then solubilized in PBS, dilution range 1:30. Cells and serial diluted test compounds (final concentrations 10 μM to 4.6 nM) or controls (PBS/0.3% DMSO) are incubated for 2 hours at 37° C. with 5% CO2. The reaction is initiated by the addition of the fluorogenic substrate, Pantothenate-AMC, at a concentration of 30 μM. After 30 minutes of incubation at 30° C. with gentle agitation, fluorescence intensity is measured at λex=350 nm and λem=450 nm with a fluorescence reader (BMG PHERAstar reader or equivalent).

Test [2] has as its target T2, Human recombinant Vanin-1 (VNN1) (Homo sapiens, UniProt O95497).
T2 construct: purchased Sino Biological Inc. 11662-H08H
T2 sequence (O95497 22-491): T1 sequence (O95497 22-491)
The experiment in a line: Vanin-1 enzymatic assay (fluorescence intensity, Pantothenate-AMC substrate). The test is classed as biochemical. The settings on record: purified recombinant human Vanin-1 0.5 nM; 30 min preincubation at 30° C.; Pantothenate-AMC 30 μM, 60 min. The procedure: Human recombinant Vanin-1 (VNN1) was purchased from Sino Biological Inc. (Catalog Number: 11662-H08H).
Measurement of VNN1 inhibition is performed in 384-well format based on fluorescence intensity assay. Purified recombinant human Vanin-1 (0.5 nM) and threefold serial diluted compounds in 3% DMSO (range of concentrations from 30 μM to 1.524 nM) or controls (3.0% DMSO) are incubated for 30 minutes at 30° C. with gentle agitation in assay buffer containing 100 mM potassium Phosphate Buffer (KPi), pH 7.5, 0.001% Bovine Serum Albumin (BSA), 0.5 mM dithiothreitol (DTT) and 0.0025% Brij-35. The reaction is initiated by the addition of the fluorogenic substrate, Pantothenate-AMC, at a concentration of 30 μM. After 60 minutes of incubation at 30° C. with gentle agitation, fluorescence intensity is measured at λex=350 nm and λem=450 nm with a fluorescence reader (BMG PHERAstar reader or equivalent).

As usually defined, the IC50 is the concentration that inhibits the measured activity by half. Take `C=CC(=O)CCNC(=O)[C@H](O)C(C)(C)CO` [Example 3, (R)-2,4-Dihydroxy-3,3-dimethyl-N-(3-oxo-pent-4-enyl)-butyramide]: the IC50 in test [1] was found to be 1270 nM; in test [2] it was 9250 nM. Turning to `CC(C)(CO)[C@@H](O)C(=O)NCCC(=O)/C=C/Cc1ccccc1` [Example 4, (R)-2,4-Dihydroxy-3,3-dimethyl-N-((E)-3-oxo-6-phenyl-hex-4-enyl)-butyramide], the IC50 in test [1] was found to be 1190 nM; in test [2] it was 2010 nM. `CC(=O)/C=C/CCNC(=O)[C@H](O)C(C)(C)CO` [Example 5, (R)-2,4-Dihydroxy-3,3-dimethyl-N-((E)-5-oxo-hex-3-enyl)-butyramide]: the IC50 in test [1] worked out at 3200 nM; in test [2], 3310 nM. On the same counts, the results for `CC(C)(CO)[C@@H](O)C(=O)NCC/C=C/C(=O)CCc1ccccc1` [Example 6] are 670 nM and 5790 nM. As to `CC(C)(CO)[C@@H](O)C(=O)NCCC(=O)C(N)=O` [Example 7, (R)—N-(3-Carbamoyl-3-oxo-propyl)-2,4-dihydroxy-3,3-dimethyl-butyramide], the values for the IC50 in test [1] and in test [2] were 1490 nM and 830 nM, respectively. `CC(C)(CO)[C@@H](O)C(=O)NCCC(=O)C(=O)NC1CC1` [Example 8, (R)—N-(3-Cyclopropylcarbamoyl-3-oxo-propyl)-2,4-dihydroxy-3,3-dimethyl-butyramide]: the IC50 in test [1] is 3540 nM; in test [2] it was 1680 nM.

Regarding `CC(C)(CO)[C@@H](O)C(=O)NCCC(=O)C(=O)NCc1ccccc1` [Example 9, (R)—N-(3-Benzylcarbamoyl-3-oxo-propyl)-2,4-dihydroxy-3,3-dimethyl-butyramide], the IC50 in test [1] was determined as 30 nM; in test [2], 40 nM. `CC(C)(CO)[C@@H](O)C(=O)NCCC(=O)C(=O)NCc1ccccc1F` [Example 10, (R)—N-[3-(2-Fluoro-benzylcarbamoyl)-3-oxo-propyl]-2,4-dihydroxy-3,3-dimethyl-butyramide]: the IC50 amounted to 25 nM in test [1] and 30 nM in test [2]. Turning to `CC(C)(CO)[C@@H](O)C(=O)NCCC(=O)C(=O)NCc1ccc(C(=O)O)cc1` [Example 54, 4-{[4-((R)-2,4-Dihydroxy-3,3-dimethyl-butrylamino)-2-oxo-butyrylamino]-methyl}-benzoic acid], the IC50 in test [2] amounted to 90 nM. On the same count and under the same terms, next, `CC(C)(CO)[C@@H](O)C(=O)NCCC(=O)C(=O)NCc1ccc(-c2ccc(C(=O)O)cc2)cc1` [Example 55, 4′-{[4-((R)-2,4-Dihydroxy-3,3-dimethyl-butyrylamino)-2-oxo-butyrylamino]-methyl}-biphenyl-4-carboxylic acid]: less than 10 nM. As for `COC(=O)c1ccc(-c2ccc(CNC(=O)C(=O)CCNC(=O)[C@H](O)C(C)(C)CO)cc2)cc1` [Example 56, 4′-{[4-((R)-2,4-Dihydroxy-3,3-dimethyl-butyrylamino)-2-oxo-butyrylamino]-methyl}-biphenyl-4-carboxylic acid methyl ester], the 50% inhibitory concentration (IC50) in test [2] came out at 10 nM. With `CC(C)(CO)[C@@H](O)C(=O)NCCN(CCOc1ccccc1)C(=O)CCl` [Example 63, (R)—N-{2-[(2-Chloro-acetyl)-(2-phenoxy-ethyl)-amino]-ethyl}-2,4-dihydroxy-3,3-dimethyl-butyramide], the IC50 in test [2] turned out to be 3550 nM. On the same count and under the same terms, next, `CC(C)(CO)[C@@H](O)C(=O)NCCN(CCOc1ccc(S(C)(=O)=O)cc1)C(=O)CCl` [Example 64, (R)—N-(2-{(2-Chloro-acetyl)-[2-(4-methanesulfonyl-phenoxy)-ethyl]-amino}-ethyl)-2,4-dihydroxy-3,3-dimethyl-butyramide]: 3440 nM. Take `COC(=O)c1ccc(OCCN(CCNC(=O)[C@H](O)C(C)(C)CO)C(=O)CCl)cc1` [Example 65, 4-(2-{(2-Chloro-acetyl)-[2-((R)-2,4-dihydroxy-3,3-dimethyl-butyrylamino)-ethyl]-amino}-ethoxy)-benzoic acid methyl ester]: the IC50 in test [2] amounted to 3990 nM. The same measure, in the same setting: the result for `CC(C)(CO)[C@@H](O)C(=O)NCCN(CCOc1ccc(Br)cc1)C(=O)CCl` [Example 66] reads 2870 nM.
